Measured values: ChEMBL document CHEMBL5579901, “Discovery of Novel [1,2,4]Triazolo[1,5-a]pyrimidine Derivatives as Novel Potent S-Phase Kinase-Associated Protein 2 (SKP2) Inhibitors for the Treatment of Cancer” (J Med Chem, 2024)
Active and inactive are the calls of the source. No cut-off for these calls is given here.

Legend:
[1] = target: Cyclin-dependent kinases regulatory subunit 1/S-phase kinase-associated protein 2 (Homo sapiens) (UniProt P61024+Q13309); assay: Inhibition of GST-tagged SKP2 (unknown origin) binding to His6-tagged CKS1 (unknown origin) incubated for 1 hr by pull down method; format: protein assay
Cyclin-dependent kinases regulatory subunit 1/S-phase kinase-associated protein 2 (Homo sapiens), sequence (P61024 2-79 limits assumed): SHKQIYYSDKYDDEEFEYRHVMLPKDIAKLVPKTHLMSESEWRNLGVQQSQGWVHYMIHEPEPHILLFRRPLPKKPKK
Cyclin-dependent kinases regulatory subunit 1/S-phase kinase-associated protein 2 (Homo sapiens), sequence (Q13309 whole entry partner): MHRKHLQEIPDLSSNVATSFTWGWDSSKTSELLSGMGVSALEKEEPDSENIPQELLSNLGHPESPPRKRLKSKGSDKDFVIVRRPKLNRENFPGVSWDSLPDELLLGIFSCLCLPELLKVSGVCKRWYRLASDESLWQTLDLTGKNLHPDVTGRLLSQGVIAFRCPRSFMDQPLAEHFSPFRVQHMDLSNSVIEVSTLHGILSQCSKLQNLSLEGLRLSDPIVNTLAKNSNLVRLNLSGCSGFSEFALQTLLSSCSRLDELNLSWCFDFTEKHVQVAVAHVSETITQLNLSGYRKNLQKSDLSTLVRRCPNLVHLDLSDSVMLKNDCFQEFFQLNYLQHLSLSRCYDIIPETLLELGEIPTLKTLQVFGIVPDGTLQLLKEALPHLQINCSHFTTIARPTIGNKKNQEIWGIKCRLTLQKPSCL

[2] = target: S-phase kinase-associated protein 2 (Homo sapiens) (UniProt Q13309); assay: Binding affinity to SKP2 in human PC-3 cells assessed as increase in thermal stability at 57 to 68 degreeC incubated for 4 hrs by CETSA; format: cell-based
S-phase kinase-associated protein 2 (Homo sapiens), sequence (Q13309 whole entry): as the sequence (Q13309 whole entry partner) above

[3] = system: MGC-803; assay: Inhibition of cell proliferation in human MGC-803 cells incubated for 24 to 72 hrs by MTT assay; format: functional, cell-based; details: dose 2-50 µM, time 24-72 hrs
[4] = system: MGC-803; assay: Inhibition of cell proliferation in human MGC-803 cells incubated for 72 hrs by MTT assay; format: functional, cell-based; details: MGC-803, 72 h
[5] = system: PC-3; assay: Inhibition of colony formation in human PC-3 cells incubated for 10 days by crystal violet staining based inverted microscopic analysis; format: functional, cell-based; details: dose 1-3 µM, time 10.0 day
[6] = system: PC-3; assay: Inhibition of colony formation in human PC-3 cells at 3 uM incubated for 10 days by crystal violet staining based inverted microscopic analysis; format: functional, cell-based; details: time 10.0 day
[7] = system: PC-3; assay: Inhibition of cell migration in human PC-3 cells incubated for 48 hrs by wound healing assay; format: functional, cell-based; details: dose 2.5-7.5 µM
[8] = system: PC-3; assay: Induction of cell cycle arrest in human PC-3 cells assessed as cells at G0/G1 phase at 15 uM incubated for 36 hrs by PI staining based flow cytometry (reference value: 54.5%); format: functional
[9] = system: PC-3; assay: Induction of cell cycle arrest in human PC-3 cells assessed as cells at S phase at 15 uM incubated for 36 hrs by PI staining based flow cytometry (reference value: 22.8%); format: functional
[10] = system: MGC-803; assay: Induction of cell cycle arrest in human MGC-803 cells assessed as cells at S phase at 5 uM incubated for 36 hrs by PI staining based flow cytometry (reference value: 18.2%); format: functional
[11] = system: MGC-803; assay: Induction of cell cycle arrest in human MGC-803 cells assessed as cells at G2/M phase at 7.5 uM incubated for 36 hrs by PI staining based flow cytometry (reference value: 20.6%); format: functional
[12] = system: MGC-803; assay: Induction of cell cycle arrest in human MGC-803 cells assessed as cells at G0/G1 phase at 15 uM incubated for 36 hrs by PI staining based flow cytometry (reference value: 57.1%); format: functional
[13] = system: PC-3; assay: Induction of cell cycle arrest in human PC-3 cells assessed as cells at G0/G1 phase at 15 uM incubated for 6 hrs by PI staining based flow cytometry (reference value: 55.1%); format: functional
[14] = system: PC-3; assay: Induction of cell cycle arrest in human PC-3 cells assessed as cells at G2/M phase at 15 uM incubated for 6 hrs by PI staining based flow cytometry (reference value: 21.4%); format: functional
[15] = system: PC-3; assay: Induction of cell cycle arrest in human PC-3 cells assessed as cells at G0/G1 phase at 15 uM incubated for 12 hrs by PI staining based flow cytometry (reference value: 55.1%); format: functional
[16] = system: PC-3; assay: Induction of cell cycle arrest in human PC-3 cells assessed as cells at G0/G1 phase at 15 uM incubated for 24 hrs by PI staining based flow cytometry (reference value: 55.1%); format: functional
[17] = system: PC-3; assay: Induction of cell cycle arrest in human PC-3 cells assessed as cells at S phase at 15 uM incubated for 24 hrs by PI staining based flow cytometry (reference value: 22.9%); format: functional
[18] = system: PC-3; assay: Induction of cell cycle arrest in human PC-3 cells assessed as cells at G2/M phase at 15 uM incubated for 24 hrs by PI staining based flow cytometry (reference value: 21.4%); format: functional
[19] = system: PC-3; assay: Induction of cell cycle arrest in human PC-3 cells assessed as cells at S phase at 15 uM incubated for 48 hrs by PI staining based flow cytometry (reference value: 22.9%); format: functional
[20] = system: MGC-803; assay: Induction of cell cycle arrest in human MGC-803 cells assessed as cells at G0/G1 phase at 15 uM incubated for 6 hrs by PI staining based flow cytometry (reference value: 57.9%); format: functional
[21] = system: MGC-803; assay: Induction of cell cycle arrest in human MGC-803 cells assessed as cells at G2/M phase at 15 uM incubated for 6 hrs by PI staining based flow cytometry (reference value: 20.8%); format: functional
[22] = system: MGC-803; assay: Induction of cell cycle arrest in human MGC-803 cells assessed as cells at S phase at 15 uM incubated for 12 hrs by PI staining based flow cytometry (reference value: 19.6%); format: functional
[23] = system: MGC-803; assay: Induction of cell cycle arrest in human MGC-803 cells assessed as cells at S phase at 15 uM incubated for 24 hrs by PI staining based flow cytometry (reference value: 19.6%); format: functional
[24] = system: MGC-803; assay: Induction of cell cycle arrest in human MGC-803 cells assessed as cells at G0/G1 phase at 15 uM incubated for 48 hrs by PI staining based flow cytometry (reference value: 57.9%); format: functional
[25] = system: MGC-803; assay: Downregulation of SKP2 protein level in human MGC-803 cells incubated for 48 hrs by Western blotting analysis; format: functional, cell-based; details: dose 5-15 µM
[26] = system: MGC-803; assay: Upregulation of p27 protein expression in human MGC-803 cells at 5 to 15 uM incubated for 48 hrs by Western blotting analysis; format: functional, cell-based; details: dose 5-15 µM
[27] = system: PC-3; assay: Upregulation of p27 protein expression in human PC-3 cells at 5 to 15 uM incubated for 48 hrs by Western blotting analysis; format: functional, cell-based; details: dose 5-15 µM
[28] = system: MGC-803; assay: Antitumor activity against human MGC-803 cells xenografted in IG dosed NOD-SCID mouse assessed as inhibition of tumor proliferation administered for 21 days; format: functional, organism-based; details: dose 25-50 mg/kg, time 21.0 day
[29] = system: MGC-803; assay: Antitumor activity against human MGC-803 cells xenografted in NOD-SCID mouse assessed as tumor growth inhibition at 25 mg/kg, IG administered for 21 days; format: functional; details: MGC-803, po, 504 h, time 21 day, read-out: TGI
[30] = system: MGC-803; assay: Antitumor activity against human MGC-803 cells xenografted in NOD-SCID mouse assessed as tumor growth inhibition at 50 mg/kg, IG administered for 21 days; format: functional; details: MGC-803, po, 504 h, time 21 day, read-out: TGI
[31] = Toxicity against NOD-SCID mouse assessed as change in liver morphology at 25 to 50 mg/kg, IG administered for 21 days by H and E staining based assay; format: organism-based; details: in vivo, po, 504 h, dose 25-50 mg/kg, time 21 day
[32] = Toxicity against NOD-SCID mouse assessed as change in heart morphology at 25 to 50 mg/kg, IG administered for 21 days by H and E staining based assay; format: organism-based; details: in vivo, po, 504 h, dose 25-50 mg/kg, time 21 day
[33] = Toxicity against NOD-SCID mouse assessed as change in lung morphology at 25 to 50 mg/kg, IG administered for 21 days by H and E staining based assay; format: organism-based; details: in vivo, po, 504 h, dose 25-50 mg/kg, time 21 day
[34] = Half-life in Sprague-Dawley rat at 1 mg/kg, iv measured upto 24 hrs by LC/MS-MS analysis; format: ADME, organism-based; details: in vivo
[35] = Half-life in Sprague-Dawley rat at 50 mg/kg, po measured upto 24 hrs by LC/MS-MS analysis; format: ADME, organism-based; details: in vivo
[36] = MRT(infinity) in Sprague-Dawley rat at 50 mg/kg, po measured upto 24 hrs by LC/MS-MS analysis; format: ADME, organism-based; details: in vivo

inhibition [1]: Active | Activity [2]: Active | IC50 [4]: 10.8 µM | t1/2 [34]: 1.49 h | half-life [35]: 9.1 h | MRT inf [36]: 10.2 h
Compound: COc1ccc(-c2cc(C)nc3nc(SCc4ccc(Br)cc4)nn23)c(OC)c1
inhibition [3]: Dose-Dependent Effect | inhibition [5]: Dose-Dependent Effect | inhibition [6]: Active | inhibition [7]: Dose-Dependent Effect | Activity [8]: 30.1% | Activity [9]: 44.3% | Activity [10]: 26.9% | Activity [11]: 18.7% | Activity [12]: 39.3% | Activity [13]: 52.8% | Activity [14]: 20.3% | Activity [15]: 48.3% | Activity [16]: 39.3% | Activity [17]: 38.6% | Activity [18]: 21.1% | Activity [19]: 39.8% | Activity [20]: 49.7% | Activity [21]: 21.9% | Activity [22]: 31.2% | Activity [23]: 38.9% | Activity [24]: 40.9% | Activity [25]: Dose-Dependent Effect | Activity [26]: Active | Activity [27]: Active | Activity [28]: Dose-Dependent Effect | inhibition in vivo at 25 mg/kg [29]: 50.9% | inhibition in vivo at 50 mg/kg [30]: 76.9% | Activity [31]: Non-Toxic | Activity [32]: Non-Toxic | Activity [33]: Non-Toxic
